Experimental data from PubChem BioAssay AID1919000 (Molecular Pharmacology Branch, DTP, NCI, 2023).
pIC50: −log10 of the molar value. Where “and” joins values, the source holds several entries; their conditions need not be identical. Equal entries are not always repeated.

System: 653999-131-R-J2-PDC complex spheroids, growth % test/control
Assay: Anticancer human tumor 653999-131-R-J2-PDC patient-derived lung adenocarcinoma cell line growth inhibition [AhR]
Conditions: for viability, T/C: stronger effect = lower value; active means viability on the fitted dose curve at most 10% of control; inactive means the rest
Text: Multicellular complex tumor spheroid response to aryl hydrocarbon receptor antagonists in combination with a variety of drugs and investigational agents in selected tumor cell lines
The current study was undertaken to assess response to aryl hydrocarbon receptor antagonists in combination with standard-of-care drugs and investigational agents in solid tumor complex spheroid models. Complex spheroids include a stromal component modeled by human endothelial cells (HUVEC) and fibroblasts modeled by human mesenchymal stem cells (MSCs). The concentration ranges selected for each drug and investigational agent were based upon clinically achievable concentrations if the clinical Cmax of the agent was known.
Compounds. The drugs and investigational agents: BAY 2416964 (NSC825713), GNF351 (NSC835774), CH-223191 (NSC835775), CPI-455 (NSC825282), aza-TdCyd (NSC777586), decitabine (NSC127716), belinostat (NSC758774), entinostat (NSC756642), pevonedistat (NSC761192), tazemetostat (NSC777109), talazoparib (NSC765396), olaparib (NSC753686), selinexor (NSC780203), nedisertib (M3814, NSC802822), bortezomib (NSC756655), venetoclax (NSC766270), doxorubicin (NSC123127), elimusertib (BAY189344, NSC800525), ceralasertib (AZD6738, NSC777638), TAK-243 (NSC785004), alisertib (NSC759677), etoposide (NSC141540), topotecan (NSC609699), eribulin (NSC707389), gemcitabine (NSC613327), carboplatin (NSC241240), cisplatin (NSC119875), and SN-38 (NSC673596) were obtained from the National Cancer Institute (NCI) Developmental Therapeutics Program Chemical Repository (32). The FDA-approved anticancer drug set is available from the Developmental Therapeutics Program at https://dtp.cancer.gov/organization/dscb/obtaining/available plates.htm. […] The stock solutions were prepared in dimethyl sulfoxide (DMSO, Sigma-Aldrich, St. Louis, MO, cat. D2650), except for the platinum compounds which were prepared in saline (Quality Biological, Gaithersburg, MD, cat. 114-055-101), at 800-fold the tested concentration and stored at -70 degrees C prior to their use. All drugs and investigational agents were tested over a range starting from a high concentration at or near the clinical Cmax and decreasing in half-log increments. If the clinical Cmax for an agent had not been determined, the highest concentration tested was 10 microM (Table 1).
Cell Culture. All cells were maintained in an incubator at 37 degrees C and 5% CO2 with 95% humidity. The PDC lines were cultured according to standard operating procedures established by the NCI PDMR (https://pdmr.cancer.gov). Briefly, all PDCs were thawed and cultured in Matrigel-coated flasks prepared with a working solution of 1X Ham's F-12 nutrient mix, without supplementation (Invitrogen, Waltham, MA, cat. 11765054), 100 U/mL penicillin-streptomycin (Invitrogen, cat. 15140122), and 2.5% Matrigel (Corning Inc., Corning, NY, cat. 354248) for the first three passages. All PDCs were cultured in complete DMEM/F-12 media containing advanced DMEM/F-12 (Invitrogen, cat. 12634028), 4.9% defined fetal bovine serum, heat inactivated (HyClone Laboratories Inc., Logan, UT, cat. SH30070.03HI), 389 ng/mL hydrocortisone (Sigma-Aldrich, cat. H4001), 9.7 ng/mL human EGF recombinant protein (Invitrogen, cat. PHG0313), 23.4 microg/mL adenine (Sigma-Aldrich, cat. A2786), 97.3 U/mL penicillin-streptomycin (Invitrogen, cat. 15140122), 1.9 mM L-glutamine (Invitrogen, cat. 25030081), and 9.7 microM Y-27632 dihydrochloride (Tocris Bioscience, Bristol, United Kingdom, cat. 1254). The PDCs were cultured in complete DMEM/F12 media without 10 microM Y-27632 dihydrochloride for at least two passages prior to the screen. The established cell lines NCI-H1341 and […] were cultured in DMEM/F-12, HEPES (Invitrogen, cat. 11330032), 5% defined fetal bovine serum (HyClone Laboratories Inc., cat. SH30070.03), ITS premix universal culture supplement [insulin (5 microg/mL), transferrin (5 microg/mL), and selenious acid (5 ng/mL)] […]

[1] = curve of first compound, second compound 0.1 µM
[2] = curve of first compound, second compound 0.316 µM
[3] = curve of first compound, second compound 1 µM
[4] = curve of first compound, second compound 3.16 µM
[5] = curve of first compound, second compound 10 µM
[6] = second compound 0.1 µM, first compound 0.0316 µM
[7] = second compound 0.1 µM, first compound 0.1 µM
[8] = second compound 0.316 µM, first compound 0.0316 µM
[9] = second compound 0.316 µM, first compound 0.1 µM
[10] = second compound 1 µM, first compound 0.0316 µM
[11] = second compound 1 µM, first compound 0.1 µM
[12] = second compound 3.16 µM, first compound 0.0316 µM
[13] = second compound 3.16 µM, first compound 0.1 µM
[14] = second compound 10 µM, first compound 0.0316 µM
[15] = second compound 10 µM, first compound 0.1 µM
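Further: spheroids exposed to agents for seven days.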

NS(=O)(=O)OCC1CC(n2ccc3c(NC4CCc5ccccc54)ncnc32)CC1O (configuration not stated)
< 5.00: pIC50 (curve of compound)
inactive: viability, T/C (compound 0.0316 µM) 101% and 97.7% and 115% | viability, T/C (compound 0.1 µM) 98.7% and 110% and 114% | viability, T/C (compound 0.316 µM) 89.3% and 95.5% and 96% | viability, T/C (compound 1 µM) 89.8% and 104% and 105% | viability, T/C (compound 3.16 µM) 91.9% and 83.5% and 78.4% | viability, T/C (compound 10 µM) 53.4% and 61.8% and 55.4%

COc1cc(Nc2ncc3c(n2)-c2ccc(Cl)cc2C(c2c(F)cccc2OC)=NC3)ccc1C(=O)O + Cc1cncc(-c2nc(NCCc3c[nH]c4ccccc34)c3ncn(C(C)C)c3n2)c1
< 5.00: pIC50 [1] | pIC50 [2] | pIC50 [3] | pIC50 [4] | pIC50 [5]
inactive: viability, T/C [6] 82.1% | viability, T/C [7] 75.4% | viability, T/C (second compound 0.1 µM, first compound 0.316 µM) 66.3% | viability, T/C (second compound 0.1 µM, first compound 1 µM) 63.3% | viability, T/C (second compound 0.1 µM, first compound 3.16 µM) 58.3% | viability, T/C (second compound 0.1 µM, first compound 10 µM) 55.5% | viability, T/C [8] 78.7% | viability, T/C [9] 67.7% | viability, T/C (second compound 0.316 µM, first compound 0.316 µM) 66.6% | viability, T/C (second compound 0.316 µM, first compound 1 µM) 63.2% | viability, T/C (second compound 0.316 µM, first compound 3.16 µM) 60.6% | viability, T/C (second compound 0.316 µM, first compound 10 µM) 54.4% | viability, T/C [10] 91% | viability, T/C [11] 78.6% | viability, T/C (second compound 1 µM, first compound 0.316 µM) 80% | viability, T/C (second compound 1 µM, first compound 1 µM) 68.2% | viability, T/C (second compound 1 µM, first compound 3.16 µM) 61.9% | viability, T/C (second compound 1 µM, first compound 10 µM) 57.8% | viability, T/C [12] 96.7% | viability, T/C [13] 86.4% | viability, T/C (second compound 3.16 µM, first compound 0.316 µM) 78.6% | viability, T/C (second compound 3.16 µM, first compound 1 µM) 73.4% | viability, T/C (second compound 3.16 µM, first compound 3.16 µM) 73.1% | viability, T/C (second compound 3.16 µM, first compound 10 µM) 64.7% | viability, T/C [14] 65.5% | viability, T/C [15] 49.9% | viability, T/C (second compound 10 µM, first compound 0.316 µM) 57.9% | viability, T/C (second compound 10 µM, first compound 1 µM) 49.9% | viability, T/C (second compound 10 µM, first compound 3.16 µM) 55.5% | viability, T/C (second compound 10 µM, first compound 10 µM) 64.4%

CC[C@@]1(O)C(=O)OCc2c1cc1n(c2=O)Cc2cc3c(CN(C)C)c(O)ccc3nc2-1 + Cc1cncc(-c2nc(NCCc3c[nH]c4ccccc34)c3ncn(C(C)C)c3n2)c1
8.33: pIC50 [5]
7.47: pIC50 [1]
7.52: pIC50 [3]
7.33: pIC50 [4]
7.57: pIC50 [2]
inactive: viability, T/C (second compound 0.1 µM, first compound 0.000316 µM) 100% | viability, T/C (second compound 0.1 µM, first compound 0.001 µM) 86.7% | viability, T/C (second compound 0.1 µM, first compound 0.00316 µM) 88.2% | viability, T/C (second compound 0.1 µM, first compound 0.01 µM) 70% | viability, T/C [6] 49.5% | viability, T/C [7] 40.4% | viability, T/C (second compound 0.316 µM, first compound 0.000316 µM) 95.4% | viability, T/C (second compound 0.316 µM, first compound 0.001 µM) 93.2% | viability, T/C (second compound 0.316 µM, first compound 0.00316 µM) 83% | viability, T/C (second compound 0.316 µM, first compound 0.01 µM) 72.8% | viability, T/C [8] 44.6% | viability, T/C [9] 33.7% | viability, T/C (second compound 1 µM, first compound 0.000316 µM) 106% | viability, T/C (second compound 1 µM, first compound 0.001 µM) 117% | viability, T/C (second compound 1 µM, first compound 0.00316 µM) 95% | viability, T/C (second compound 1 µM, first compound 0.01 µM) 72.3% | viability, T/C [10] 51.4% | viability, T/C [11] 36.3% | viability, T/C (second compound 3.16 µM, first compound 0.000316 µM) 112% | viability, T/C (second compound 3.16 µM, first compound 0.001 µM) 106% | viability, T/C (second compound 3.16 µM, first compound 0.00316 µM) 91.5% | viability, T/C (second compound 3.16 µM, first compound 0.01 µM) 77.4% | viability, T/C [12] 57.5% | viability, T/C [13] 36.2% | viability, T/C (second compound 10 µM, first compound 0.000316 µM) 55.2% | viability, T/C (second compound 10 µM, first compound 0.001 µM) 64.4% | viability, T/C (second compound 10 µM, first compound 0.00316 µM) 54.6% | viability, T/C (second compound 10 µM, first compound 0.01 µM) 39.3% | viability, T/C [14] 34.1% | viability, T/C [15] 28.5%
